Experiments:
[1] = tested on: K562; assay: Antiproliferative activity against human K562 cells after 48 hrs by MTT assay; assay type: functional, cell-based; conditions: K562, 48 h
[2] = Induction of NO release from L-cysteine in phosphate buffer at pH 7.4 at 0.4 mM after 3 hrs by Griess assay; assay type: physicochemical; conditions: pH 7.4, 3 h, 400 µM
[3] = tested on: HL-60; assay: Antiproliferative activity against human HL60 cells after 48 hrs by MTT assay; assay type: functional, cell-based; conditions: HL-60, 48 h
[4] = tested on: NB-4; assay: Antiproliferative activity against human NB4 cells after 48 hrs by MTT assay; assay type: functional, cell-based; conditions: NB-4, 48 h
[5] = tested on: NB-4; assay: Ratio of tamibarotene IC50 to compound IC50 for human NB4 cells; assay type: functional
[6] = tested on: HL-60; assay: Ratio of tamibarotene IC50 to compound IC50 for human HL60 cells; assay type: functional
[7] = tested on: K562; assay: Ratio of tamibarotene IC50 to compound IC50 for human K562 cells; assay type: functional

CC(C)C[C@H](NC(=O)c1ccc(C(=O)Nc2ccc3c(c2)C(C)(C)CCC3(C)C)cc1)C(=O)OCc1c(-c2ccccc2)no[n+]1[O-]
IC50 [1]: 64 µM | Activity [2]: Active | IC50 [3]: 0.74 µM | IC50 [4]: 0.97 µM

C[C@H](NC(=O)c1ccc(C(=O)Nc2ccc3c(c2)C(C)(C)CCC3(C)C)cc1)C(=O)OCc1c(-c2ccccc2)no[n+]1[O-]
IC50 [1]: 60.4 µM | Activity [2]: Active | IC50 [3]: 6.97 µM | IC50 [4]: 5.1 µM

CC1(C)CCC(C)(C)c2cc(NC(=O)c3ccc(C(=O)NCCOC(=O)c4ccc(OCc5c(-c6ccccc6)no[n+]5[O-])cc4)cc3)ccc21
IC50 [1]: > 1000 µM | Activity [2]: Active | IC50 [3]: 12.3 µM | IC50 [4]: 10.4 µM

CC1(C)CCC(C)(C)c2cc(NC(=O)c3ccc(C(=O)N[C@@H](Cc4ccccc4)C(=O)OCc4c(-c5ccccc5)no[n+]4[O-])cc3)ccc21
IC50 [1]: 22.6 µM | Activity [2]: Active | IC50 [3]: 0.5 µM | IC50 [4]: 0.75 µM

CC1(C)CCC(C)(C)c2cc(NC(=O)c3ccc(C(=O)OCCOC(=O)c4ccc(OCc5c(-c6ccccc6)no[n+]5[O-])cc4)cc3)ccc21
IC50 [1]: > 1000 µM | Activity [2]: Active | IC50 [3]: 395 µM | IC50 [4]: 119 µM

CC(C)[C@H](NC(=O)c1ccc(C(=O)Nc2ccc3c(c2)C(C)(C)CCC3(C)C)cc1)C(=O)OCc1c(-c2ccccc2)no[n+]1[O-]
IC50 [1]: 192 µM | Activity [2]: Active | IC50 [3]: 5.85 µM | IC50 [4]: 4.39 µM

CC1(C)CCC(C)(C)c2cc(NC(=O)c3ccc(C(=O)OCCCOC(=O)c4ccc(OCc5c(-c6ccccc6)no[n+]5[O-])cc4)cc3)ccc21
IC50 [1]: > 1000 µM | Activity [2]: Active | IC50 [3]: 185 µM | IC50 [4]: 140 µM

CC1(C)CCC(C)(C)c2cc(NC(=O)c3ccc(C(=O)OCCCCCOC(=O)c4ccc(OCc5c(-c6ccccc6)no[n+]5[O-])cc4)cc3)ccc21
IC50 [1]: > 1000 µM | Activity [2]: Active | IC50 [3]: 282 µM | IC50 [4]: 240 µM

CC1(C)CCC(C)(C)c2cc(NC(=O)c3ccc(C(=O)NCC(=O)OCc4c(-c5ccccc5)no[n+]4[O-])cc3)ccc21
Ratio IC50 [5]: 25 | IC50 [1]: 7.12 µM | Ratio IC50 [6]: 56 | Activity [2]: Active | IC50 [3]: 0.16 µM | IC50 [4]: 0.19 µM | Ratio IC50 [7]: 6

CC1(C)CCC(C)(C)c2cc(NC(=O)c3ccc(C(=O)NCCNC(=O)c4ccc(OCc5c(-c6ccccc6)no[n+]5[O-])cc4)cc3)ccc21
IC50 [1]: 13.3 µM | Activity [2]: Active | IC50 [3]: 1.14 µM | IC50 [4]: 1.93 µM

CC1(C)CCC(C)(C)c2cc(NC(=O)c3ccc(C(=O)OCCCCCCOC(=O)c4ccc(OCc5c(-c6ccccc6)no[n+]5[O-])cc4)cc3)ccc21
IC50 [1]: > 1000 µM | Activity [2]: Active | IC50 [3]: 486 µM | IC50 [4]: > 1000 µM

CC1(C)CCC(C)(C)c2cc(NC(=O)c3ccc(C(=O)OCCCCOC(=O)c4ccc(OCc5c(-c6ccccc6)no[n+]5[O-])cc4)cc3)ccc21
IC50 [1]: > 1000 µM | Activity [2]: Active | IC50 [3]: 651 µM | IC50 [4]: 952 µM

CC1(C)CCC(C)(C)c2cc(NC(=O)c3ccc(C(=O)O)cc3)ccc21 [TAMIBAROTENE]
IC50 [1]: 42.4 µM | IC50 [3]: 8.94 µM | IC50 [4]: 4.81 µM
